Reference: publication PMC3131501 (Journal of molecular biology, 2011)

How the values were obtained:
wild type (wt) BA2930 = wild type (wt) BA2930 (Bacillus anthracis, UniProt A0A3P1UCA6); format: binding
BA2930 = format: biochemical, Bacillus anthracis str. Ames; conditions: pH 7.5

Sequence of wild type (wt) BA2930 (A0A3P1UCA6 1-265): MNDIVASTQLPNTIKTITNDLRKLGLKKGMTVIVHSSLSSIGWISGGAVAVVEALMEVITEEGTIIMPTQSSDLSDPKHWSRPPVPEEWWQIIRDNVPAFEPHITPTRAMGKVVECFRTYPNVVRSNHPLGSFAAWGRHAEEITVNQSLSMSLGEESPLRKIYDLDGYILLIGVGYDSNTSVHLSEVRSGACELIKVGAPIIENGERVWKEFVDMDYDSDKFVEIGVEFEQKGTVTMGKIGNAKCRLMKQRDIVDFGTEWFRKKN

Structure (SMILES)	N (stoichiometry) (wild type (wt) BA2930)	ΔH (wild type (wt) BA2930) [kJ/mol]	−TΔS (wild type (wt) BA2930) [kJ/mol]	Kd (wild type (wt) BA2930; pH 7.5) [µM]	chemical modification by the enzyme (TLC) (BA2930)
CC(=O)SCCNC(=O)CCNC(=O)[C@H](O)C(C)(C)COP(=O)(O)OP(=O)(O)OC[C@H]1O[C@@H](n2cnc3c(N)ncnc32)[C@H](O)[C@@H]1OP(=O)(O)O [AcCoA, Acetyl Coenzyme A]	1.140±0.013	-90.83 ± 1.92	-65.31	33.4 ± 2.53	–
NCC[C@H](O)C(=O)N[C@@H]1C[C@H](N)[C@@H](O[C@H]2O[C@H](CN)[C@@H](O)[C@H](O)[C@H]2O)[C@H](O)[C@H]1O[C@H]1O[C@H](CO)[C@@H](O)[C@H](N)[C@H]1O [Amikacin]	–	–	–	–	modified by the enzyme
CC(C)(COP(=O)(O)OP(=O)(O)OC[C@H]1O[C@@H](n2cnc3c(N)ncnc32)[C@H](O)[C@@H]1OP(=O)(O)O)[C@@H](O)C(=O)NCCC(=O)NCCS [CoA, Coenzyme A]	1.000±0.031	-52.17 ± 2.22	-22.4	–	–
NC[C@H]1O[C@H](O[C@H]2[C@H](O)[C@@H](O[C@H]3O[C@H](CO)[C@@H](O)[C@H](N)[C@H]3O)[C@H](N)C[C@@H]2N)[C@H](O)[C@@H](O)[C@@H]1O [kanamycin]	–	–	–	–	modified by the enzyme
NC[C@H]1O[C@H](O[C@H]2[C@H](O)[C@@H](O[C@H]3O[C@H](CO)[C@@H](O)[C@H](N)[C@H]3O)[C@H](N)C[C@@H]2N)[C@H](N)C[C@@H]1O [tobramycin]	–	–	–	–	modified by the enzyme
